The values below come from paper PMC2613833 (Bioorganic & medicinal chemistry, 2008).

Data set [1] concerns the target T1, estrogen receptor α (ERα) (Homo sapiens, UniProt P03372).
T1 sequence (P03372 1-595): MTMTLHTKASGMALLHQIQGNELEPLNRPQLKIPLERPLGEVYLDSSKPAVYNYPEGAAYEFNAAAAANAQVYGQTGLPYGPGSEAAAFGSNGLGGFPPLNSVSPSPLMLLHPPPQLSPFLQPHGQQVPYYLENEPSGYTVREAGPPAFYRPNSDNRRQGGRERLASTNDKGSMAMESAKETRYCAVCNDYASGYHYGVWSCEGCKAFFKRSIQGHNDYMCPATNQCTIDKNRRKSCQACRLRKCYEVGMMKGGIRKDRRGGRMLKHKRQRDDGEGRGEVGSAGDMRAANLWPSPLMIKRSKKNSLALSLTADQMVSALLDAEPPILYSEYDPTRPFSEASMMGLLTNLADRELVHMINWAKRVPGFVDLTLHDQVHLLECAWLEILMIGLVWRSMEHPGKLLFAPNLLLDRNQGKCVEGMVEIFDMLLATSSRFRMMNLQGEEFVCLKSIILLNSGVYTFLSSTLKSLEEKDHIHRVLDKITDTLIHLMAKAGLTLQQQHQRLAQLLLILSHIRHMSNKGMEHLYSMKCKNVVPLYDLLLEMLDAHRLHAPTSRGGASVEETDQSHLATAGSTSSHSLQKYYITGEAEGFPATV
Put plainly: Luciferase reporter gene assay. The class given is cell-based. To be noted: for IC50: HEC-1 cells, full-length ERα, 1 nM estradiol, 24 h.

For data set [2], the target named is T2, Gal4-SRC-1NRD / ERαDEF-VP16 (Homo sapiens, UniProt P03372).
T2 sequence (P03372 264-595 limits assumed): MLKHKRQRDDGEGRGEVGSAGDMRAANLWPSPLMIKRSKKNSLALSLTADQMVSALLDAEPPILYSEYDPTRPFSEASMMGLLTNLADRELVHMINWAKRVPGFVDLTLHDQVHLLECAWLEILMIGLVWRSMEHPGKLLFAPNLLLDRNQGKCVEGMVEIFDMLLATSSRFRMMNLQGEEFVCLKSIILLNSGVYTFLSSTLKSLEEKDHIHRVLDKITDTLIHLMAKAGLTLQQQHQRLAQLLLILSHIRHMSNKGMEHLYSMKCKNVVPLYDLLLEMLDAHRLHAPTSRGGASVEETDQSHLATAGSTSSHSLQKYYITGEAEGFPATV
The data set is described as follows: Mammalian two hybrid. The class given is cell-based. To be noted: read-out: IC50, CBI inhibition in the M2H assay; HEC-1 cells, 1 nM estradiol, 24 h.

Data set [3] concerns the target T3, recombinant estrogen receptor ligand binding domain / fluorescein-labeled SRC peptide (Homo sapiens, UniProt P03372).
T3 sequence (P03372 311-547 limits assumed): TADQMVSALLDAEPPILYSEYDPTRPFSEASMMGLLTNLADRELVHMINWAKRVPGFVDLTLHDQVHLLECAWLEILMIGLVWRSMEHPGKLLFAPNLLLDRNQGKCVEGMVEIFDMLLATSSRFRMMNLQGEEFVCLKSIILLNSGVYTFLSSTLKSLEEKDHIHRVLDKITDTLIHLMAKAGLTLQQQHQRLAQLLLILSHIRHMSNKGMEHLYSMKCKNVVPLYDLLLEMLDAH
The data set is described as follows: Fluorescence polarization assay of ER/coactivator interaction. The note with it: 1 μM estradiol, Figure 1. Background: In fluorescence polarisation assays a small probe gives low polarisation when free and higher when bound to something large.

In data set [4] the target is T4, ERα (Homo sapiens, UniProt P03372).
T4 sequence (P03372 1-595): T1 sequence (P03372 1-595)
Put plainly: Covalent attachment test, ESI mass spectrometry of ER after incubation. To be noted: 30 min at 4 °C in phosphate-buffered saline, dialysis overnight, low-res ESI.

The subject of data set [5] is ER. The note with it: read-out: IC50, CBI activity against ER; mammalian two-hybrid (M2H) assay; cited from earlier work.
For data set [6], the system named is ER transactivation in human breast cancer MCF-7 cells. To be noted: cited from earlier work.
Setting [7] is: read-out: IC50, CBI inhibition of reporter gene activity.
Where [8] appears, read: IC50, CBI inhibition of reporter gene activity.

Counter-ions that a name gives are not always drawn. Like-named read-outs stand apart in the source and are kept apart here. Some results are limits rather than exact numbers.

With “1-(1-Chloro-3,4-dihydro-naphthalen-2-yl)-ethanone aminoguanylhydrazone HCl [compound 33]”, the IC50 in data set [1] (setting [7]) was at least 50 µM.
For “3-Chloro-3-naphthalen-1-yl-propenal aminoguanylhydrazone HCl [compound 30]”, the IC50 in data set [1] (setting [7]) and in data set [2] was at least 50 µM in each case.
`N=C(N)N/N=C/C1=C(Cl)c2ccccc2CC1` [compound 1, 1-Chloro-3,4-dihydronaphthalene-2-carboxaldehyde aminoguanylhydrazone HCl]: in data set [3], the “inhibition of ER/coactivator interaction” value is given as “Dose-dependent inhibition”. Moreover, the “change in molecular weight of ER (covalent attachment)” value in data set [4] is “no change in molecular weight was observed”. Moreover, the IC50 in data set [5] is 5.5 µM. Moreover, in data set [6], the ER transactivation entry is given as “inhibited ER transactivation”.
For the compound `Cc1cc(C)c2c(c1)C(Cl)=C(/C=N/NC(=N)N)CC2` [compound 20, 1-Chloro-5,7-dimethyl-3,4-dihydronaphthalene-2-carboxaldehyde aminoguanylhydrazone HCl], the IC50 in data set [1] (setting [8]) came out at 1.2 ± 0.1 µM.
`CC1CC(/C=N/NC(=N)N)=C(Cl)c2ccccc21` (centres unmarked) [compound 21, 1-Chloro-3-dihydro-4-methylnaphthalene-2-carboxaldehyde aminoguanylhydrazone HCl] had an IC50 in data set [1] (setting [8]) of 1.5 µM.
With `N=C(N)N/N=C/C1=C(Cl)c2ccccc2CCC1` [compound 23, 9-Chloro-6,7-dihydro-5-benzocycloheptene-8-carboxaldehyde aminoguanylhydrazone HCl], the IC50 in data set [1] (setting [8]) is 3.3 ± 0.8 µM. In addition, the “inhibition of ER/coactivator interaction” value in data set [3] is listed as “Dose-dependent inhibition”.
Take `N=C(N)N/N=C/C1=C(Br)c2ccccc2CC1` [compound 24, 1-Bromo-3,4-dihydronaphthalene-2-carboxaldehyde aminoguanylhydrazone HCl]: in data set [1] (setting [8]), half-maximal inhibition (IC50) required 7.8 ± 0.1 µM.
Still for that read-out and setting: the value for `COC1=C(/C=N/NC(=N)N)CCc2ccccc21` [compound 25, 1-Methoxy-3,4-dihydronaphthalene-2-carboxaldehyde aminoguanylhydrazone HCl] was 3.1 ± 0.8 µM.
With `N=C(N)N/N=C/C1=C(Oc2ccccc2)c2ccccc2CC1` [compound 26, 1-Phenoxy-3,4-dihydronaphthalene-2-carboxaldehyde aminoguanylhydrazone HCl], the IC50 in data set [1] (setting [8]) turned out to be 3.5 ± 1.1 µM.
As for `N=C(N)N/N=C/C1=C(C(F)(F)F)c2ccccc2CC1` [compound 27, 1-(1,1,1,-Trifluoromethyl)-3,4-dihydronaphthalene-2-carboxaldehyde aminoguanylhydrazone HCl], the IC50 in data set [1] (setting [8]) was found to be 12 µM.
As to `CC(/C=N/NC(=N)N)=C(/Cl)c1ccccc1` [compound 29, β-Chloro-α-methylcinnamaldehyde aminoguanylhydrazone HCl], in data set [1] (setting [8]), the IC50 turned out to be 1.4 ± 0.4 µM. In addition, in data set [3], the “inhibition of ER/coactivator interaction” value is reported as “Dose-dependent inhibition”.
Turning to `N=C(N)N/N=C/c1cccc2ccccc12` [compound 31, 2-(1-Naphthalenylmethylene) hydrazinecarboximidamide HCl], the midpoint of inhibition in data set [1] (setting [8]), the IC50, lay at 7.5 µM.
As for `N=C(N)N/N=C/c1ccc2ccccc2c1` [compound 32, 2-(2-Naphthalenylmethylene)hydrazinecarboximidamide HCl], 7.5 ± 0.5 µM corresponded to half-maximal inhibition in data set [1] (setting [8]) (IC50).
On to hydroxytamoxifen [reference compound], for which, in data set [1] (reporter gene assay, 1 nM vs 100 nM estradiol, Figure 4b), the “increase in IC50 with a 100-fold higher estradiol concentration” value is 100 fold.

What is called IC50 is the concentration that inhibits the measured activity by half.
